For one experiment, the target named is c-Cbl (Homo sapiens (Human), UniProt P22681). The experiment in a line: C-Cbl LCK Ub TR-FRET assay (C-cbl Lck HTRF). It counts as biochemical. The procedure, abridged: (§1)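 After the ubiquitination reaction, detection mixture was added and plates incubated 20 min at room temperature before reading. IC50 values were calculated with wells lacking LCK as the low control and DMSO as the high control.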
(In general: TR-FRET usually uses a lanthanide donor and a delayed reading to cut background.)

Another experiment has as its target c-Cbl (residues 47-435) (Homo sapiens (Human), UniProt P22681). The experiment is described as follows: c-Cbl SPR assay. It counts as binding. The note with it: 20° C. The procedure, abridged: (§2)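 Captured protein (1300-1500 RU for both isoforms) was probed in multi-cycle kinetics with 6 concentrations in 2-fold dilution, 60 s contact, 40 μl/min, dissociation 120-1200 s, double-referenced. Kinetic and affinity parameters came from a 1:1 binding fit. For slow off-rates, kd was set independently by a chaser-based method.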

The target of experiment [1] is Human Cbl-b (residues 40-426) (Homo sapiens (Human), UniProt Q13191). The experiment is described as follows: Cbl-b SPR assay. Format: binding. The following applies: for Fold of selectivity: C-cbl SPR Kd vs Cbl-b SPR Kd; for Kd: SPR, 20° C. The essentials: as §2
Human Cbl-b (residues 40-426), sequence (Q13191 40-426): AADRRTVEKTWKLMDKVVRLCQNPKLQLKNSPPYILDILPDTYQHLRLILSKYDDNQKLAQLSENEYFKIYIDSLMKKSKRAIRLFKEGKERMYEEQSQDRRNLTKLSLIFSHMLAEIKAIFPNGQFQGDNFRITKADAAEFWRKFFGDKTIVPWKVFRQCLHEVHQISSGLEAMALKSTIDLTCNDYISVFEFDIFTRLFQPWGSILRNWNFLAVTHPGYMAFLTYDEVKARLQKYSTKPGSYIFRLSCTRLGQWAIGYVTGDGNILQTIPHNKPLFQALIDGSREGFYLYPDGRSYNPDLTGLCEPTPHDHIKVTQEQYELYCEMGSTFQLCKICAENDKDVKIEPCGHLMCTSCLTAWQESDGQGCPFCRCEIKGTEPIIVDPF
Another experiment concerns the target Cbl-b (Homo sapiens (Human), UniProt Q13191). The experiment is described as follows: Cbl-b LCK Ub TR-FRET assay (Cbl-b Lck HTRF). The following applies: for IC50: Cbl-b LCK Ub TR-FRET; for fold-selectivity (Cbl-b over C-cbl): ratio C-cbl Lck HTRF IC50 / Cbl-b Lck HTRF IC50. It counts as biochemical. The procedure, abridged: as §1

For orientation: IC50 means the point on the concentration scale where inhibition reaches its midpoint. A word on the Kd: it is the equilibrium constant for the complex coming apart. The low end stands for a tighter complex, the high end for a looser complex.

Cbl-b, sequence (Q13191 40-426): as above
c-Cbl (residues 47-435), sequence (P22681 47-435): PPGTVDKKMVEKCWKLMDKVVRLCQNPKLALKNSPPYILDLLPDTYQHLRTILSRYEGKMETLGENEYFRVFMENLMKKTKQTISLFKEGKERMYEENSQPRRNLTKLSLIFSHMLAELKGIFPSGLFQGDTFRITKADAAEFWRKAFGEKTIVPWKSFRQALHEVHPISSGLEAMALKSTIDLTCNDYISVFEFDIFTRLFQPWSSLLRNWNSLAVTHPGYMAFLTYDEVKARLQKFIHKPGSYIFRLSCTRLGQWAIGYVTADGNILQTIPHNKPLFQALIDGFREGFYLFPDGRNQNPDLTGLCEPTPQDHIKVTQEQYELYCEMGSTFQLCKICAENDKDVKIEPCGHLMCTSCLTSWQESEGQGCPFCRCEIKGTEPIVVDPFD
c-Cbl, sequence (P22681 47-435): as above

In turn, `CO[C@H]1C[C@@](c2cc(NC(C)C)cc(N3Cc4c(cc(CNC5(C)CCC5)cc4C(F)(F)F)C3=O)c2)(c2nncn2C)C1` [Compound 223, 2-(3-(isopropylamino)-5-((1s,3s)-3-methoxy-1-(4-methyl-4H-1,2,4-triazol-3-yl)cyclobutyl)phenyl)-6-(((1-methylcyclobutyl)amino)methyl)-4-(trifluoromethyl)isoindolin-1-one] registered an IC50 at c-Cbl of 21 nM. On c-Cbl (residues 47-435), this compound returned a dissociation constant (Kd) of 22 nM. For the same compound, in experiment [1], the Fold of selectivity is given as 7.5× and binding was characterised by a dissociation constant (Kd) of 2.9 nM. Also, at Cbl-b, half-maximal inhibition (IC50) was put at 15 nM and the “fold-selectivity (Cbl-b over C-cbl)” value is 1.4x.
Consider `CO[C@H]1C[C@@](c2cc(NCCC#N)cc(N3Cc4c(cc(CNC5(C)CCC5)cc4C(F)(F)F)C3=O)c2)(c2nncn2C)C1` [Compound 224], for which the IC50 against c-Cbl turned out to be 100 nM. The same compound gave a Kd on c-Cbl (residues 47-435) of 100 nM. In experiment [1], this compound displayed a Fold of selectivity of 10× and a dissociation constant (Kd) of 9.5 nM. Besides, on Cbl-b, the midpoint of inhibition, the IC50, lay at 20 nM and the “fold-selectivity (Cbl-b over C-cbl)” value is 5.0x.
On to `CO[C@H]1C[C@](c2cc(C3CC3)cc(N3Cc4c(cc(CNC5(C)CCC5)cc4C(F)(F)F)C3=O)c2)(c2nncn2C)C1` [Compound 226, 2-(3-cyclopropyl-5-((1r,3r)-3-methoxy-1-(4-methyl-4H-1,2,4-triazol-3-yl)cyclobutyl)phenyl)-6-(((1-methylcyclobutyl)amino)methyl)-4-(trifluoromethyl)isoindolin-1-one], for which the IC50 against c-Cbl was 10 nM. Besides, on c-Cbl (residues 47-435), the dissociation constant (Kd) amounted to 4.2 nM. For the same compound, in experiment [1], the Fold of selectivity is 3.2× and the affinity, expressed as Kd, was 1.3 nM. Besides, on Cbl-b, the concentration for half-maximal inhibition (IC50) was 11 nM and the “fold-selectivity (Cbl-b over C-cbl)” value worked out at 0.99x.
`CCNc1cc(N2Cc3c(cc(CNC4(C)CCC4)cc3C(F)(F)F)C2=O)cc([C@]2(c3nncn3C)C[C@@H](OC)C2)c1` [Compound 227, 2-(3-(ethylamino)-5-((1s,3s)-3-methoxy-1-(4-methyl-4H-1,2,4-triazol-3-yl)cyclobutyl)phenyl)-6-(((1-methylcyclobutyl)amino)methyl)-4-(trifluoromethyl)isoindolin-1-one] had a half-maximal inhibitory concentration (IC50) against c-Cbl of 16 nM. Further, the Kd on c-Cbl (residues 47-435) worked out at 11 nM. Also, in experiment [1], the Fold of selectivity stood at 6.5× and the affinity, expressed as Kd, was 1.7 nM. Besides, at Cbl-b, the IC50 was determined as 10 nM and the “fold-selectivity (Cbl-b over C-cbl)” value is listed as 1.6x.
As for `COC1CC2(C1)CC(c1cccc(N3Cc4c(cc(CNC5(C)CCC5)cc4C(F)(F)F)C3=O)c1)(c1nncn1C)C2` (stereo not drawn) [Compound 229, 2-(3-(6-methoxy-2-(4-methyl-4H-1,2,4-triazol-3-yl)spiro[3.3]heptan-2-yl)phenyl)-6-(((1-methylcyclobutyl)amino)methyl)-4-(trifluoromethyl)isoindolin-1-one], the IC50 against c-Cbl turned out to be 1400 nM; against Cbl-b, 230 nM. The results for the Kd (at c-Cbl (residues 47-435); in experiment [1]) were 760 nM and 110 nM, respectively. This compound returned a Fold of selectivity in experiment [1] of 7.0×. Further, the “fold-selectivity (Cbl-b over C-cbl)” value on Cbl-b worked out at 5.9x.
As to `CO[C@H]1C[C@](c2cc(C)cc(N3Cc4c(cc(CNC5(C)CCC5)cc4C(F)(F)F)C3=O)c2)(c2nncn2C)C1` [Compound 230, 2-(3-((1r,3r)-3-methoxy-1-(4-methyl-4H-1,2,4-triazol-3-yl)cyclobutyl)-5-methylphenyl)-6-(((1-methylcyclobutyl)amino)methyl)-4-(trifluoromethyl)isoindolin-1-one], 290 nM corresponded to half-maximal inhibition on c-Cbl (IC50). Further, the Kd on c-Cbl (residues 47-435) was 170 nM. In experiment [1], this compound showed a Fold of selectivity of 2.3× and a dissociation constant Kd of 75 nM. Also, at Cbl-b, the 50% inhibitory concentration (IC50) was 190 nM and the “fold-selectivity (Cbl-b over C-cbl)” value was 1.5x.
Take `CO[C@H]1C[C@@](c2cc(NC3CC3)cc(N3Cc4c(cc(CNC5(C)CCC5)cc4C(F)(F)F)C3=O)c2)(c2nncn2C)C1` [Compound 231, 2-(3-(cyclopropylamino)-5-((1s,3s)-3-methoxy-1-(4-methyl-4H-1,2,4-triazol-3-yl)cyclobutyl)phenyl)-6-(((1-methylcyclobutyl)amino)methyl)-4-(trifluoromethyl)isoindolin-1-one]: the results for the concentration for half-maximal inhibition (IC50) at c-Cbl and on Cbl-b were 17 nM and 11 nM, respectively. Besides, the Kd was determined as 8.1 nM on c-Cbl (residues 47-435) and 1.5 nM in experiment [1]. In experiment [1], this compound returned a Fold of selectivity of 5.4×. The “fold-selectivity (Cbl-b over C-cbl)” value on Cbl-b is 1.5x.
`C=CCNc1cc(N2Cc3c(cc(CNC4(C)CCC4)cc3C(F)(F)F)C2=O)cc([C@]2(c3nncn3C)C[C@H](OC)C2)c1` [Compound 232, 2-(3-(allylamino)-5-((1r,3r)-3-methoxy-1-(4-methyl-4H-1,2,4-triazol-3-yl)cyclobutyl)phenyl)-6-(((1-methylcyclobutyl)amino)methyl)-4-(trifluoromethyl)isoindolin-1-one] registered a half-inhibitory concentration (IC50) against c-Cbl of 35 nM. Further, on c-Cbl (residues 47-435), the Kd was found to be 13 nM. In experiment [1], the Fold of selectivity is listed as 9.2× and binding was characterised by a dissociation constant (Kd) of 1.4 nM. Further, at Cbl-b, the IC50 came out at 13 nM and the “fold-selectivity (Cbl-b over C-cbl)” value is 2.6x.
Regarding `CO[C@H]1C[C@](c2cc(NC3COC3)cc(N3Cc4c(cc(CNC5(C)CCC5)cc4C(F)(F)F)C3=O)c2)(c2nncn2C)C1` [Compound 234, 2-(3-((1r,3r)-3-methoxy-1-(4-methyl-4H-1,2,4-triazol-3-yl)cyclobutyl)-5-(oxetan-3-ylamino)phenyl)-6-(((1-methylcyclobutyl)amino)methyl)-4-(trifluoromethyl)isoindolin-1-one], inhibition against c-Cbl was half-maximal at 140 nM (IC50). The Kd on c-Cbl (residues 47-435) turned out to be 76 nM. In addition, in experiment [1], the Fold of selectivity worked out at 10× and the affinity, expressed as Kd, was 7.4 nM. Also, on Cbl-b, inhibition was half-maximal at 25 nM (IC50) and the “fold-selectivity (Cbl-b over C-cbl)” value is 5.6x.
Compound `CCc1cc(N2Cc3c(cc(CNC4(C)CCC4)cc3C(F)(F)F)C2=O)cc([C@]2(c3nncn3C)C[C@@H](OC)C2)c1` [Compound 235, 2-(3-ethyl-5-((1s,3s)-3-methoxy-1-(4-methyl-4H-1,2,4-triazol-3-yl)cyclobutyl)phenyl)-6-(((1-methylcyclobutyl)amino)methyl)-4-(trifluoromethyl)isoindolin-1-one] yielded an IC50 against c-Cbl of 110 nM. This compound yielded a Kd on c-Cbl (residues 47-435) of 110 nM. Besides, in experiment [1], the Fold of selectivity came to 2.9× and binding was characterised by a dissociation constant (Kd) of 36 nM. Moreover, at Cbl-b, half-maximal inhibition (IC50) was put at 78 nM and the “fold-selectivity (Cbl-b over C-cbl)” value worked out at 1.4x.
In the case of `CCc1cc(N2Cc3c(cc(CNC4(C)CCC4)cc3C(F)(F)F)C2=O)cc([C@]2(c3nncn3C)C[C@H](OC)C2)c1` [Compound 236, 2-(3-ethyl-5-((1r,3r)-3-methoxy-1-(4-methyl-4H-1,2,4-triazol-3-yl)cyclobutyl)phenyl)-6-(((1-methylcyclobutyl)amino)methyl)-4-(trifluoromethyl)isoindolin-1-one], the concentration for half-maximal inhibition (IC50) against c-Cbl is 65 nM; against Cbl-b it was 38 nM. For the same compound, the equilibrium dissociation constant (Kd) at c-Cbl (residues 47-435) amounted to 47 nM; in experiment [1], 19 nM. Besides, the Fold of selectivity in experiment [1] is listed as 2.5×. Further, the “fold-selectivity (Cbl-b over C-cbl)” value on Cbl-b came out at 1.7x.
As for `CNc1cc(N2Cc3c(cc(CNC4(C)CCC4)cc3C(F)(F)F)C2=O)cc([C@]2(c3nncn3C)C[C@@H](OC)C2)c1` [Compound 238, 2-(3-((1s,3s)-3-methoxy-1-(4-methyl-4H-1,2,4-triazol-3-yl)cyclobutyl)-5-(methylamino)phenyl)-6-(((1-methylcyclobutyl)amino)methyl)-4-(trifluoromethyl)isoindolin-1-one], the concentration for half-maximal inhibition (IC50) against c-Cbl amounted to 14 nM; on Cbl-b, 12 nM. Further, the figures for the Kd (at c-Cbl (residues 47-435); in experiment [1]) were 5.8 nM and 2.2 nM, respectively. Moreover, the Fold of selectivity in experiment [1] came out at 2.6×. At Cbl-b, the “fold-selectivity (Cbl-b over C-cbl)” value turned out to be 1.1x.
On to `CNc1cc(N2Cc3c(cc(CNC4(C)CCC4)cc3C(F)(F)F)C2=O)cc([C@]2(c3nncn3C)C[C@H](OC)C2)c1` [Compound 239, 2-(3-((1r,3r)-3-methoxy-1-(4-methyl-4H-1,2,4-triazol-3-yl)cyclobutyl)-5-(methylamino)phenyl)-6-(((1-methylcyclobutyl)amino)methyl)-4-(trifluoromethyl)isoindolin-1-one], for which the half-maximal inhibitory concentration (IC50) against c-Cbl was 13 nM. The compound further returned a Kd on c-Cbl (residues 47-435) of 4.4 nM. Also, in experiment [1], the Fold of selectivity stood at 4.4× and the Kd came to 1 nM. Also, on Cbl-b, the IC50 was 13 nM and the “fold-selectivity (Cbl-b over C-cbl)” value came out at 1.0x.
At c-Cbl, `C=CCNc1cc(N2Cc3c(cc(CNC4(C)CCC4)cc3C(F)(F)F)C2=O)cc([C@]2(c3nncn3C)C[C@@H](OC)C2)c1` [Compound 240, 2-(3-(allylamino)-5-((1s,3s)-3-methoxy-1-(4-methyl-4H-1,2,4-triazol-3-yl)cyclobutyl)phenyl)-6-(((1-methylcyclobutyl)amino)methyl)-4-(trifluoromethyl)isoindolin-1-one] came in with an IC50 of 51 nM. On c-Cbl (residues 47-435), binding was characterised by a dissociation constant (Kd) of 27 nM. For the same compound, in experiment [1], the Fold of selectivity is 12× and the affinity, expressed as Kd, was 2.3 nM. On Cbl-b, the IC50 was 14 nM and the “fold-selectivity (Cbl-b over C-cbl)” value came to 3.7x.
`CO[C@H]1C[C@@](c2cc(OC3COC3)cc(N3Cc4c(cc(CNC5(C)CCC5)cc4C(F)(F)F)C3=O)c2)(c2nncn2C)C1` [Compound 241, 2-(3-((1s,3s)-3-methoxy-1-(4-methyl-4H-1,2,4-triazol-3-yl)cyclobutyl)-5-(oxetan-3-yloxy)phenyl)-6-(((1-methylcyclobutyl)amino)methyl)-4-(trifluoromethyl)isoindolin-1-one] displayed a concentration for half-maximal inhibition (IC50) on c-Cbl of 530 nM. At c-Cbl (residues 47-435), this compound returned a Kd of 270 nM. In experiment [1], this compound gave a Fold of selectivity of 8.6× and a Kd of 34 nM. Moreover, on Cbl-b, 130 nM corresponded to half-maximal inhibition (IC50) and the “fold-selectivity (Cbl-b over C-cbl)” value was found to be 4.0x.
